Test results reported in patent publication EP0095262A1, “Azabicycloalkane derivatives, their preparation and medicaments containing them” (BEECHAM GROUP PLC, priority 1982, dated 1983).

The compounds below were run on post-synaptic Dopamine (D.A.) receptors (assay: Inhibition of apomorphine induced climbing in the mouse). Conditions: p.o., ½ hr post dosing; dose for 50% inhibition of climbing induced by apomorphine 1 mg/kg s.c.; male CD1 mice; 30 min.
Format: in vivo
Procedure: The results in the following table are an illustration of the anti-psychotic activity of the present compounds as shown by Inhibition of Apormorphine Induced Climbing in the Mouse, a standard test.
The test is based on that described by Protais, P., Constantin, J. and Schwartz J.C. (1976), Psychopharmacology, 50, 1-6.
When mice are given a dose of 1 mg/kg apomorphine and then placed in an enclosed environment, such as an inverted wire cage, they are seen to climb around the walls. This behavioural phenomenon is thought to be a consequence of the stimulation of post-synaptic Dopamine (D.A.) receptors in the nucleus accumbens. Inhibition of apomorphine induced climbing is therefore indicative of post-synaptic D.A. receptor blockade in the accumbens.
Groups of lO male CD1 mice, weighing 25-30 g were pre-treated orally with either graded doses of the test compound or vehicle, at appropriate time intervals before the subcutaneous administration of a sub-maximal dose of apomorphine (1 mg/kg). Immediately after the apomorphine injection the mice were placed in wire 'climbing cages' and each animal was scored for climbing behavour at 10 and 20 minutes post apomorphine as follows:-
The total score was calculated for each group of mice and expressed as a percentage inhibition of climbing. [formula]
ED50's and fiducial limits were calculated according to the method of Litchfield and Wilcoxon, the ED50 being the dose that produced a 50% inhibition of apomorphine - induced climbing.
“2,3-Dimethoxy-N-[7'-exo-Methyl-9'-(4-methylbenzyl)-9'-aza- bicycclo-[3.3.1]-non-3-β-yl]benzamide [Example 8]” was tested, and the ED50 was 0.48 p.o. ½ hr mg/kg. For “2-[7'-exo-Methyl-9'-(4-methyl benzyl)-9'-aza-bicyclo[3.3.1] -non-3-β-yl]-phthalimidine [Example 9]”, the ED50 was 2.65 p.o. ½ hr mg/kg. For “4-Amino-5 -Chloro-2-Methoxy-N-[7'-Methyl-9'-(4-Methylbenzyl)-9'-aza-bicyclo[3.3.1]-non-3-P-yl]benzamide [Example 5]”, the ED50 was 0.6 p.o. ½ hr mg/kg. “4-Amino-5-Chloro-2-Methoxy-N-[6'-endomethyl-9'-(4 methyl- benzyiyl)-9'-aza-bicyclo[3.3,1]-non-3-β- 1]benzamide [Example 6]” showed an ED50 of 1.1 p.o. ½ hr mg/kg. Work on “4-Amino-5-Chloro-2-Methoxy-N-[6'-exo-methl-9'-(4-methylbenzyl)-9'-aza-bicyclo[3.3.1]-non-3-β-yl]benzamide [Example 7]” yielded an ED50 of 2.75 p.o. ½ hr mg/kg. `COc1cc(N)c(Cl)cc1C(=O)NC1CC2CC(C)C(C1)N2Cc1ccc(C)cc1` (stereo not drawn) [Example 1, 4-Amiho-5-chloro-2-rnethoxyy-N-[6'-exo-methyl-8'-(4-methylbenzyl)-8'-azabicycloro[3.2.1]-oct-3-β-yl]-benzamide] gave an ED50 of 0.19 p.o. ½ hr mg/kg.

Same assay, conditions: s.c., 4 hrs post dosing; dose for 50% inhibition of climbing induced by apomorphine 1 mg/kg s.c.; male CD1 mice
“4-Amino-5-chloro-2-methoxy-N-[6'-exo-hydroxy-8'-benzyl-8'-azabicyclol[3.2.1]-oct-3'-β-yl]-benzamide [Example 4]” showed an ED50 of 0.47 s.c. 4 hrs mg/kg.
